Source: patent publication US20090130064A1, “DIFFERENTIATION OF STEM CELLS AND STABILIZATION OF PHENOTYPICAL PROPERTIES OF PRIMARY CELLS” (priority 2004, published 2009)

How the values were obtained:
ERK1/2 = assay: Western blotting of ERK1/2 phosphorylation in synchronized hepatocytes; type: cell-based, rat; details: 50 μM + EGF; initial 30 min
Method: Total cell extracts were prepared as described previously (Papeleu et al. J Hepatol 39: 374-382, 2003) and proteins (25 or 50 μg per lane) were separated electrophoretically by SDS-PAGE and electroblotted onto nitrocellulose membranes (Amersham Pharmacia Biotech, Buckinghamshire, UK). Equal sample loading was verified by immersion of the membranes in Ponceau S. Unspecific binding sites were blocked with 5% skim milk/Tris-buffered saline. Incubations with primary antibodies were performed overnight at 4° C. under gentle shaking. Proteins were detected using the ECL detection system (Amersham Pharmacia Biotech, Buckinghamshire, UK) according to the manufacturer's recommendations.
Early cell cycle events can be triggered by distinct signalling pathways, activated by EGF, namely: the MEK/ERK, the mTOR/p70S6k, and the Pak1 pathways. Eventually, they all converge on cyclin D1 and play thus an essential role in the regulation of this critical cell cycle protein. […] This was done by culturing the hepatocytes in the absence of EGF for 48 hours, consequently stimulating them with EGF and exposing them to 50 μM 4-Me2N-BAVAH for 0.5, 1 and 3 hours before harvesting. Shortly after stimulation of synchronized primary hepatocytes with EGF, a rapid and sustained phosphorylation of ERK1/2 was observed (FIG. 20A). […]

rat BMSC = assay: DNA synthesis by [methyl-3H] thymidine incorporation in differentiating rat BMSC; type: cell-based
Method: [methyl-3H] thymidine (25 μCiμmol, 2 μCi/ml) incorporation into trichloroacetic acid precipitated-DNA (Amersham Inc) was measured.
BMSC were, 24 h after splitting; cultivated in the presence of LSP cytokines, added either as a cocktail or separately on 10 ng/ml FN at 2.465 10^3 cells/cm^2. […] Media were changed every three days. Samples were taken 2, 4, 6, 12 and 18 h after splitting or media change. Cells were stimulated for 2 h before sampling with 2 μCi [methyl-^3H] thymidine (Amersham Pharmacia Biotech)/ml medium. [methyl-^3H] thymidine incorporation was measured using a scintillation counter (Wallac 1410) with a counting efficiency of 62.4%.

hMSC = assay: LDH-leakage cytotoxicity in hMSC; type: cell-based, human
Method: Low-density hMSC (CD45^−, Thy^+) were cultivated at 21.5 10^3 cells cm^2 on 1 mg/ml collagen gel type I matrix in the presence of liver-specific (LSP) cytokines, added either as a cocktail [basal medium supplemented with 10 ng/ml FGF-4 (fibroblast growth factor type 4), 20 ng/ml HGF (hepatic growth factor) (all from R&D), 1×ITS (insulin, transferrin, selenious acid) and 0.05 μM Dex (dexamethasone) (all from Sigma)] or sequentially [basal medium supplemented with 10 ng/ml FGF-4, following basal media supplemented with 20 ng/ml HGF (R&D) and finally basal medium supplemented with 20 ng/ml HGF, 1×ITS and 0.05 μM Dex]. Basal medium consisted of 60% (v/v) DMEM-LG/40% (v/v) MCDB-201 supplemented with 1 mg/ml LA-BSA, 100 IU/ml penicillin, 100 μg/ml streptomycin, 0.1 mM L-ascorbic acid, 4 μg/ml nicotinamide, 27.3 mg/l sodium-pyruvate and 1.623 mM glutamin (all from Sigma). The media were changed every three days.
The assay was done with an LDH-kit (Merck 1 14869.0001; Ecoline 1S) according to the manufacturer's recommendations.

[1] = Biotransformation by rat liver microsomes; type: in vitro ADME; details: 140 μM TSA, 150 min
Method: (§1) Human liver specimens (n=3) were acquired from organ donors at the Academic Hospital of the VUB in accordance with the regulations of the local Medical Ethical Committee and immediately frozen in liquid nitrogen. While human liver microsomes were prepared from frozen liver tissue, rat livers (n=3) were freshly isolated for immediate microsome preparation. Microsomal 7-ethoxyresorufin-O-deethylase (EROD) [31]was used as a marker enzyme to evaluate the microsomal biotransformation activity before and after storage. Incubations were carried out in a 100 mM sodium potassium phosphate buffer pH 7.4 in the presence of a NADPH-generating system (0.5 mM NADP^+, 10 mM glucose 6-phosphate, 2 U/ml glucose 6-phosphate dehydrogenase and 0.6 mM MgCl2). Microsomes (0.0-2.0 mg microsomal protein/ml) were incubated with 140 μM substrate at 37° C. for 150 min. Boiled microsomes ([…]) served as a control. Biotransformation reactions were initiated by addition of substrate and, at selected time intervals, terminated by dilution with ice-cold acetonitrile (1:2.5).
(§2) After centrifugation (2000 g, 45 min, 4° C.) of the diluted microsomal samples, the clear supernatant was injected onto a HPLC column. Samples from incubations with hepatocytes were thawed on ice and centrifugated (120 g, 2 min). […]

[2] = Biotransformation by human liver microsomes; type: in vitro ADME; details: 140 μM TSA, 150 min
Method: as §1, §2

[3] = 1 μM TSA first from 168 h cultivation on, sequential

Row | SMILES | ERK1/2 phosphorylation (ERK1/2) | cytotoxicity by microscopic analysis (rat BMSC) | cell death by microscopic analysis (rat BMSC; 1 μM TSA added from 24 and 96 h on, sequential) | [methyl-3H] thymidine incorporation (rat BMSC; [3]) | cell death by microscopic analysis (rat BMSC; [3]) | DNA synthesis compared with control (sequential without TSA) (rat BMSC; 1 μM TSA from 24, 96 and 168 h on, sequential LSP cytokines) | DNA synthesis compared with control (cocktail-TSA) (rat BMSC; 1 μM TSA from 24 and 96 h of cultivation on, cocktail of LSP cytokines) | cell death by microscopic analysis (rat BMSC; 1 μM TSA from 168 h, cocktail, day 7) | [methyl-3H] thymidine incorporation (DNA synthesis) (rat BMSC; 5 and 25 μM TSA) | [methyl-3H] thymidine incorporation (rat BMSC; first addition of 1 μM TSA from 168 h of cultivation on, cocktail) | cytotoxicity (LDH leakage) (hMSC; 1 μM TSA) | cell lethality (LDH leakage) (hMSC; 1 μM TSA, from day 13 (cocktail) and day 3 (sequential) on) | cytotoxicity (LDH leakage) (hMSC; 5 and 25 μM TSA from day 0 until addition of HGF) | biotransformation in microsome suspensions [1] | biotransformation in microsome suspensions [2]
1 | CN(C)c1ccc(C(=O)NCCCCC(=O)NO)cc1 [4-Me2N-BAVAH, 5-(4-dimethylaminobenzoyl)-aminovaleric acid hydroxamide] | increase in ERK1/2 phosphorylation | – | – | – | – | – | – | – | – | – | – | – | – | – | –
2 | CC(C=CC(=O)NO)=CC(C)C(=O)c1ccc(N(C)C)cc1 (stereo not drawn) [TSA] | – | cytotoxicity | cell death | no [methyl-^3H] thymidine incorporation | No death cells were observed | decrease of the DNA synthesis | increase of the DNA synthesis | no cell death had occurred | no incorporation | no [methyl-^3H] thymidine | did not cause immediate cell death | significantly downregulated cell lethality | immediate cell death | slow and incomplete biotransformation | slow and incomplete biotransformation
